{
  "source": "paper PMC10861881",
  "about": "(Proceedings of the National Academy of Sciences of the …, 2024)",
  "key": {"[1]": {"tested_on": "p-ERK (Tyr202/204) in SNU-16 cells", "experiment": "SNU-16 cellular PD assay, p-ERK HTRF", "assay_type": "cell-based", "conditions": "Homo sapiens, SNU-16, 2 h, read-out: SNU16 PD IC50"}, "[2]": {"experiment": "Hepatocyte intrinsic clearance, human", "assay_type": "in vitro ADME", "conditions": "hepatocytes"}, "[3]": {"experiment": "Plasma protein binding, cynomolgus monkey", "assay_type": "in vitro ADME", "conditions": "pooled plasma"}, "[4]": {"experiment": "Plasma protein binding, rat", "assay_type": "in vitro ADME", "conditions": "Sprague-Dawley, pooled plasma"}, "[5]": {"tested_on": "FGFR2 fusion-positive cholangiocarcinoma", "conditions": "patients, across dose levels; cited from earlier work"}, "[6]": {"experiment": "Hepatocyte intrinsic clearance, cynomolgus monkey", "assay_type": "in vitro ADME", "conditions": "hepatocytes"}, "MEK5": {"tested_on": "MEK5", "conditions": "test concentration 500 nmol/L; cited from earlier work"}, "[7]": {"experiment": "Hepatocyte intrinsic clearance, rat", "assay_type": "in vitro ADME", "conditions": "hepatocytes"}, "[8]": {"experiment": "Hepatocyte intrinsic clearance, dog", "assay_type": "in vitro ADME", "conditions": "hepatocytes"}, "[9]": {"experiment": "Thermodynamic solubility FaSSIF/SGF", "assay_type": "physicochemical", "conditions": "thermodynamic from solid"}, "pFGFR2 (Y653/654)": {"tested_on": "pFGFR2 (Y653/654)", "experiment": "Tumor PD", "assay_type": "in vivo, mouse", "conditions": "SNU-16 xenograft, BALB/c nude mice, oral 5 and 10 mg/kg twice daily groups, 2 h postdose"}, "ELogD": {"experiment": "ELogD", "assay_type": "physicochemical", "conditions": "pH 7.4"}, "[10]": {"experiment": "Plasma protein binding, human", "assay_type": "in vitro ADME", "conditions": "pooled plasma"}, "[11]": {"experiment": "Stability in plasma and blood", "assay_type": "in vitro ADME", "conditions": "plasma of all species, 5 μM, 37 °C, 18 h"}, "PK study IV/PO, dog": {"experiment": "PK study IV/PO, dog", "assay_type": "in vivo"}, "[12]": {"experiment": "Plasma protein binding, mouse", "assay_type": "in vitro ADME", "conditions": "pooled plasma"}, "[13]": {"experiment": "PK study IV/PO, cynomolgus monkey", "assay_type": "in vivo"}, "[14]": {"experiment": "Hepatocyte intrinsic clearance, mouse", "assay_type": "in vitro ADME", "conditions": "hepatocytes"}, "PK study IV/PO, rat": {"experiment": "PK study IV/PO, rat", "assay_type": "in vivo"}, "PK study IV/PO, mouse": {"experiment": "PK study IV/PO, mouse", "assay_type": "in vivo"}, "MKNK2": {"tested_on": "MKNK2", "conditions": "test concentration 500 nmol/L; cited from earlier work"}, "[15]": {"experiment": "Plasma protein binding, dog", "assay_type": "in vitro ADME", "conditions": "beagle, pooled plasma"}, "CACO2 permeability": {"experiment": "CACO2 permeability", "conditions": "human, Caco-2"}},
  "data": [
    {"smiles": "C=C(C)C(=O)Nc1ccc(-c2c(-c3ccc(Oc4nccc(C)n4)c(F)c3)c3c(N)ncnc3n2C)cc1", "note": "[Lirafugratinib]", "values": [
      {"measurement": "IC50", "setting": "[1]", "result": 3, "unit": "nM"},
      {"measurement": "hepatocyte CLint", "setting": "[2]", "result": "< 1", "unit": "µL/min/1e6 cells"},
      {"measurement": "fraction unbound at 18 h, 5 μM", "setting": "[3]", "result": 0.002},
      {"measurement": "fraction unbound at 18 h, 5 μM", "setting": "[4]", "result": 0.016},
      {"measurement": "adverse effects occurring with treatment", "setting": "[5]", "result": "minimal hyperphosphatemia and diarrhea"},
      {"measurement": "hepatocyte CLint", "setting": "[6]", "result": 6.5, "unit": "µL/min/1e6 cells"},
      {"measurement": "inhibition of MEK5 in kinome panel", "setting": "MEK5", "result": 92.4, "unit": "%"},
      {"measurement": "hepatocyte CLint", "setting": "[7]", "result": 30, "unit": "µL/min/1e6 cells"},
      {"measurement": "hepatocyte CLint", "setting": "[8]", "result": 19, "unit": "µL/min/1e6 cells"},
      {"measurement": "solubility", "setting": "[9]; FaSSIF", "result": 49.3, "unit": "µM"},
      {"measurement": "solubility", "setting": "[9]; SGF, simulated gastric fluid", "result": 540, "unit": "µM"},
      {"measurement": "modulation of phosphorylated FGFR2 (pFGFR2) in tumor", "setting": "pFGFR2 (Y653/654)", "result": "complete suppression"},
      {"measurement": "ELogD@7.4", "setting": "ELogD", "result": "4.3/510"},
      {"measurement": "fraction unbound at 18 h, 5 μM", "setting": "[10]", "result": 0.0014},
      {"measurement": "stability in plasma under PPB assay conditions", "setting": "[11]", "result": "stable"},
      {"measurement": "IV CLu dog", "setting": "PK study IV/PO, dog; IV, unbound", "result": "1,200 mL/min/kg"},
      {"measurement": "Vd", "setting": "PK study IV/PO, dog; beagle, plasma, iv", "result": 1.3, "unit": "L/kg"},
      {"measurement": "clearance", "setting": "PK study IV/PO, dog; beagle, plasma, iv", "result": 28, "unit": "mL/min/kg"},
      {"measurement": "half-life", "setting": "PK study IV/PO, dog; beagle, plasma, iv", "result": 33, "unit": "min"},
      {"measurement": "bioavailability", "setting": "PK study IV/PO, dog; beagle, plasma, po", "result": 53, "unit": "%"},
      {"measurement": "fraction unbound at 18 h, 5 μM", "setting": "[12]", "result": 0.0082},
      {"measurement": "IV CLu cynomolgus monkey", "setting": "[13]; IV, unbound", "result": "1,100 mL/min/kg"},
      {"measurement": "Vd", "setting": "[13]; plasma, iv", "result": 0.26, "unit": "L/kg"},
      {"measurement": "clearance", "setting": "[13]; plasma, iv", "result": 2.2, "unit": "mL/min/kg"},
      {"measurement": "half-life", "setting": "[13]; plasma, iv", "result": 84, "unit": "min"},
      {"measurement": "bioavailability", "setting": "[13]; plasma, po", "result": 47, "unit": "%"},
      {"measurement": "hepatocyte CLint", "setting": "[14]", "result": 29, "unit": "µL/min/1e6 cells"},
      {"measurement": "IV CLu rat", "setting": "PK study IV/PO, rat; IV, unbound", "result": "3,813 mL/min/kg"},
      {"measurement": "Vd", "setting": "PK study IV/PO, rat; Sprague-Dawley, in vivo, iv", "result": 0.98, "unit": "L/kg"},
      {"measurement": "half-life", "setting": "PK study IV/PO, rat; Sprague-Dawley, in vivo, iv", "result": 11.4, "unit": "min"},
      {"measurement": "bioavailability", "setting": "PK study IV/PO, rat; Sprague-Dawley, in vivo, po", "result": 18, "unit": "%"},
      {"measurement": "Vd", "setting": "PK study IV/PO, mouse; BALB/c nude, plasma, iv", "result": 0.42, "unit": "L/kg"},
      {"measurement": "clearance", "setting": "PK study IV/PO, mouse; BALB/c nude, plasma, iv", "result": 4.4, "unit": "mL/min/kg"},
      {"measurement": "half-life", "setting": "PK study IV/PO, mouse; BALB/c nude, plasma, iv", "result": 66, "unit": "min"},
      {"measurement": "bioavailability", "setting": "PK study IV/PO, mouse; BALB/c nude, plasma, po", "result": 58, "unit": "%"},
      {"measurement": "IV CLu mouse", "setting": "PK study IV/PO, mouse; IV, unbound", "result": 538, "unit": "mL/min/kg"},
      {"measurement": "inhibition of MKNK2 in kinome panel", "setting": "MKNK2", "result": 89, "unit": "%"},
      {"measurement": "fraction unbound at 18 h, 5 μM", "setting": "[15]", "result": 0.023},
      {"measurement": "Papp A→B", "setting": "CACO2 permeability", "result": 5.3, "unit": "×10⁻⁶ cm/s"},
      {"measurement": "Papp B→A", "setting": "CACO2 permeability", "result": 6.8, "unit": "×10⁻⁶ cm/s"}
    ]}
  ]
}
